Laboratory results as given in patent publication US9758788B2, “Mutagenesis of plants for overproduction of selective estrogen receptor modulators” (Naprogenix, Inc., priority 2014, dated 2017).

Key:
transgenic hDAT 1°HRs = test: Toxicity of DA-ergic toxins, trypan blue staining, transgenic hairy roots; conditions: for cells killed by toxin exposure: 24 h, 6-OHDA 50 uM, MPTP 100 μM, MPP+ 100 μM
Description: (§1) Trypan blue staining for toxicity was quantified using ImageJ software. […] Since MPTP is converted to the its cytotoxic metabolite, MPP+, by oxidases, biosynthesis of oxidase inhibitors would also confer a survival advantage if MPTP were chosen as a selection agent (monoamine oxidase inhibitors prevent MPTP toxicity in SH-SY5Y neuroblastoma cells).

Non-transgenic 1°HRs = test: Toxicity of DA-ergic toxins, trypan blue staining, non-transgenic hairy roots; type: cell-based, Lobelia cardinalis; conditions: 6-OHDA 50 uM, MPTP 100 μM, MPP+ 100 μM
Description: as §1

nicAChRs [1] = test: nicAChR binding: inhibition of [3H]-epibatidine binding; set-up: species or system rat; conditions: non-subtype selective radioligand
Description: (§2) Lobinaline was purified from a methanol extract prepared from dried aerial portions of L. cardinalis. The methanolic extract was dried under vacuum, resuspended in water, and defatted with hexane. The hexane phase was removed, and the remaining aqueous phase was partitioned with chloroform. The chloroform phase was collected, dried under vacuum, and lobinaline was purified from this fraction by acid/base extraction to yield lobinaline of ˜95% purity (single peak and spectroscopic authenticity by GC-MS). This compound was then dissolved in DMSO and used in aqueous solution to evaluate its effects on the dopamine transporter and nicAChRs, both in rat brain preparations and in the human dopaminergic neuroblastoma cell line SH-SY5Y. Antioxidant activity of lobinaline was evaluated using the dipheny picryl hydrazyl free radical scavenging assay.
(§3) It is therefore relatively non-selective, whereas almost all known plant alkaloids are relatively selective for the […] nicAChR.

alpha7 nicAChR = target: T1, alpha7 nicAChR (Rattus norvegicus, UniProt Q05941); test: nicAChR binding: inhibition of [3H]-MLA binding; conditions: alpha7 selective ligand
T1 construct: from tissue; host or cells: rat brain preparation (inferred)
T1 sequence (Q05941 23-502): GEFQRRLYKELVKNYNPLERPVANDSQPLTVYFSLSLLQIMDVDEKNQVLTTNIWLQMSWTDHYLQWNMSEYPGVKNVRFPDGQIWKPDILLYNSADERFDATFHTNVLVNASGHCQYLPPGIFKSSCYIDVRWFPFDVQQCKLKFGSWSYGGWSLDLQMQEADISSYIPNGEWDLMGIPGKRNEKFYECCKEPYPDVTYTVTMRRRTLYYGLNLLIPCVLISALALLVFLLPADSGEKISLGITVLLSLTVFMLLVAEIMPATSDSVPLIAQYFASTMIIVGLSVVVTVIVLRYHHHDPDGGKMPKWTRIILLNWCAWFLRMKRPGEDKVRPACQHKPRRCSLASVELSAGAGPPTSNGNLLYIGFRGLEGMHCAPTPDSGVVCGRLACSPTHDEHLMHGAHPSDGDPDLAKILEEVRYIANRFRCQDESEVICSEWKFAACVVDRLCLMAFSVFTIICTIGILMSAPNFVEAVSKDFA
Description: as §2, §3

[2] = target: T2, dopamine transporter (DAT) (Rattus norvegicus, UniProt P23977); test: [3H]-dopamine uptake into rat striatal synaptosomes; type: biochemical
T2 construct: from tissue; host or cells: rat striatal synaptosomes
T2 sequence (P23977 whole entry): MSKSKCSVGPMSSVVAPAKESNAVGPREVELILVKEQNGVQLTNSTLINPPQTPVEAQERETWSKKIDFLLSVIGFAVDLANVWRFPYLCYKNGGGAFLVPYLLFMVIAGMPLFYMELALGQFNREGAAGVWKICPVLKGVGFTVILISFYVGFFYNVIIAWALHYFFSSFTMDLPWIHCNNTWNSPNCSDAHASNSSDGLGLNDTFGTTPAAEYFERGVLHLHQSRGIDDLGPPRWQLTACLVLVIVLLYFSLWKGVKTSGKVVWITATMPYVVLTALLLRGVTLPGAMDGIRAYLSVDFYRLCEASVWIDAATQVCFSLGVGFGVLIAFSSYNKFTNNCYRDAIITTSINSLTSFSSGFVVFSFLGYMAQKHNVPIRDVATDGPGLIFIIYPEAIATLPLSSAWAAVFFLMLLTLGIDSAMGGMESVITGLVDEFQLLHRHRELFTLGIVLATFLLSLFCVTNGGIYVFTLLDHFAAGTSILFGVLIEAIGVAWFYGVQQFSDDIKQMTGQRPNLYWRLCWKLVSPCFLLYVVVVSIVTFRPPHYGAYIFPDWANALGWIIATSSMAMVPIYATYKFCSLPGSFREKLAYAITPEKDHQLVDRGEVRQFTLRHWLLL

DAT = target: T3, DAT (Rattus norvegicus, UniProt P23977); test: [3H]-GBR12935 specific binding to rat striatal membranes
T3 construct: from tissue; host or cells: rat striatal membranes
T3 sequence (P23977 whole entry): as above
Description: (§4) The low affinity binding of lobinaline to this site on the DAT may therefore not be directly related to its functional effect.

SH-SY5Y cells = test: MPP+ toxicity on SH-SY5Y cells; type: cell-based, human
Description: as §2, §4

[3] = DPPH free radical scavenging assay; conditions: read-out: IC50, inhibition of DPPH free radical activity
Description: as §2
Stable free radical diphenyl picryl hydrazyl (DPPH) scavenging was used to assess anti-oxidant activity.
Dried methanolic extracts prepared from individual L. cardinalis hairy roots were dissolved in assay buffer and tested for (a) concentration-dependent effects on [^3H]-DA uptake into rat striatal synaptosomes, (b) quenching stable DPPH radical, as measured by absorbance at 517 nm. The results are presented as “lobinaline equivalents” calculated from pure lobinaline concentration response curves (FIG. 1). […]

nicAChRs [4] = test: [3H]-dopamine release from rat brain striatal slices; type: biochemical
[5] = mice; compared with lobeline; cited from earlier work
[6] = PubChem; cited from earlier work

## NCCc1cc(O)c(O)cc1O [6-OHDA]
Transgenic hDAT 1°HRs
  cells killed by toxin exposure: ~50%
Non-transgenic 1°HRs
  damage by toxin exposure: not significantly damaged

## Fc1ccc(C(OCCN2CCN(CCCc3ccccc3)CC2)c2ccc(F)cc2)cc1 [GBR12909]
Transgenic hDAT 1°HRs; toxins 6-OHDA, MPTP or MPP+
  inhibition of toxin cytotoxicity: inhibited

## C[n+]1ccc(-c2ccccc2)cc1 [MPP+]
Transgenic hDAT 1°HRs
  cells killed by toxin exposure: ~50%
Non-transgenic 1°HRs
  damage by toxin exposure: not significantly damaged

## CN1CC=C(c2ccccc2)CC1 [MPTP]
Transgenic hDAT 1°HRs
  cells killed by toxin exposure: ~50%
Non-transgenic 1°HRs
  damage by toxin exposure: not significantly damaged

## CN1CCCC2C(c3ccccc3)C(C3=NCCCC3)C(c3ccccc3)CC21 (stereo not shown) [lobinaline]
nicAChRs [1]
  Ki: 17.3 µM
alpha7 nicAChR
  Ki: 105 µM
[2]
  maximum inhibition of dopamine uptake: 85.25%
[2]; read-out: IC50, inhibition of [3H]-dopamine uptake
  IC50: 12 µM
DAT
  inhibition of [3H]-GBR12935 specific binding (extent): completely inhibited
DAT; read-out: Ki, inhibition of [3H]-GBR12935 specific binding
  Ki: 89 µM
SH-SY5Y cells
  concentration inhibiting the toxicity of MPP+: ~100 µM
[3]
  IC50: 21.1 µM
nicAChRs [4]; 10 μM nicotine
  effect on DA release induced by nicotine: reduced the DA release
[5]
  mammalian toxicity (LD50): low mammalian toxicity
[6]
  Hydrogen Bond Acceptors: 2
  Hydrogen Bond Donors: 0
  Log P: 4.8

## CNC1(C)C2CCC(C2)C1(C)C (stereo not shown) [mecamylamine, reference compound]
nicAChRs [4]; 10 μM mecamylamine
  inhibition of the initial phase of [3H] release caused by the lobinaline-containing fraction: almost completely inhibited

## O=c1c(O)c(-c2ccc(O)c(O)c2)oc2cc(O)cc(O)c12 [quercetin, reference compound]
[3]
  IC50: 11.2 µM
